Assays:
bedstraw = test: Test B pre/postemergence bedstraw; type: in vivo, Galium aparine
Summary of the method: (§1)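 Test chemicals in a non-phytotoxic solvent mixture with surfactant were sprayed preemergence onto planted seeds and postemergence onto plants 2 to 18 cm tall (1- to 4-leaf stage). After twelve to sixteen days in a greenhouse, injury was visually rated against untreated controls from 0 (no effect) to 10 (complete control).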

surinam grass = test: Test B pre/postemergence surinam grass; type: in vivo, Brachiaria decumbens
Summary of the method: as §1

rice = test: Test B flood test rice; type: in vivo, Oryza sativa
Summary of the method: (§2)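 Each value is a visual injury score relative to controls, with 10 meaning complete control and 0 no effect. Evaluation took place twelve to sixteen days after the 2-leaf-stage plants were treated and kept in the greenhouse.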

soybean = test: Test B pre/postemergence soybean; type: in vivo, Glycine max
Summary of the method: as §1

wild oat = test: Test B pre/postemergence wild oat; type: in vivo, Avena fatua
Summary of the method: as §1

crabgrass = test: Test B pre/postemergence crabgrass; type: in vivo, Digitaria sanguinalis
Summary of the method: as §1

corn = test: Test B pre/postemergence corn; type: in vivo, Zea mays
Summary of the method: as §1

blackgrass = test: Test B pre/postemergence blackgrass; type: in vivo, Alopecurus myosuroides
Summary of the method: as §1

wheat = test: Test B pre/postemergence wheat; type: in vivo, Triticum aestivum
Summary of the method: as §1

bamyardgrass = test: Test B flood test barnyardgrass; type: in vivo, Echinochloa crus-galli
Summary of the method: as §2

smallflower flatsedge = test: Test B flood test smallflower flatsedge; type: in vivo, Cyperus difformis
Summary of the method: as §2

velvetleaf = test: Test B pre/postemergence velvetleaf; type: in vivo, Abutilon theophrasti
Summary of the method: as §1

sugar beet = test: Test B pre/postemergence sugar beet; type: in vivo, Beta vulgaris
Summary of the method: as §1

duck salad = test: Test B flood test duck salad; type: in vivo, Heteranthera limosa
Summary of the method: as §2

cocklebur = test: Test B pre/postemergence cocklebur; type: in vivo, Xanthium strumarium
Summary of the method: as §1

purple nutsedge = test: Test B pre/postemergence purple nutsedge; type: in vivo, Cyperus rotundus
Summary of the method: as §1

[1] = Preemergence, Rate 62 g/ha, scale of 0 to 10 where 0 is no effect and 10 is complete control
[2] = Preemergence, Rate 250 g/ha, scale of 0 to 10 where 0 is no effect and 10 is complete control
[3] = Preemergence, Rate 500 g/ha, scale of 0 to 10 where 0 is no effect and 10 is complete control
[4] = Rate 62 g/ha, Postemergence, scale 0 to 10 (0 no effect, 10 complete control)
[5] = Rate 125 g/ha, Postemergence, scale of 0 to 10 where 0 is no effect and 10 is complete control
[6] = Rate 250 g/ha, Postemergence, scale of 0 to 10 where 0 is no effect and 10 is complete control
[7] = Rate 500 g/ha, Postemergence, scale 0 to 10, 0 no effect, 10 complete control
[8] = Rate 62 g/ha, headed Pre-emergence (flood test species), scale 0 to 10 (0 no effect, 10 complete control)
[9] = Rate 125 g/ha, Pre-emergence, flood test species, scale 0 to 10 where 0 is no effect and 10 is complete control
[10] = Rate 250 g/ha, Pre-emergence, flood-test species, scale 0 to 10, 0 is no effect, 10 is complete control
[11] = Rate 500 g/ha, Pre-emergence, flood test species, scale 0 to 10 (0 no effect, 10 complete control)

## CCc1cccc(CC)c1-n1c(=O)on(C(=O)N(c2ccc(F)cc2)C(C)C)c1=O [Compound 304]
bedstraw; [1]
  Bedstraw plant response rating: 0
bedstraw; Preemergence, Rate 125 g/ha
  Bedstraw plant response rating (0 to 10 scale): 0
bedstraw; [2]
  Bedstraw plant response rating: 0
bedstraw; [3]
  Bedstraw plant response rating: 0
bedstraw; [4]
  Bedstraw plant response rating: 0
bedstraw; [5]
  Bedstraw plant response rating: 0
Surinam grass; [1]
  B. signalgrass plant response rating: 0
Surinam grass; Preemergence, Rate 125 g/ha
  B. signalgrass plant response rating (0 to 10 scale, 0 is no effect, 10 is complete control): 0
Surinam grass; [2]
  B. signalgrass plant response rating: 0
Surinam grass; [3]
  B. signalgrass plant response rating: 0
Surinam grass; [4]
  B. signalgrass plant response rating: 0
Surinam grass; [5]
  B. signalgrass plant response rating: 0
Surinam grass; [6]
  Plant response rating, B. signalgrass: 0
Surinam grass; [7]
  B. signalgrass plant response rating: 0
rice; [8]
  Rice plant response rating: 0
rice; [9]
  Rice plant response rating: 0
rice; [10]
  Rice plant response rating: 0
rice; [11]
  Rice plant response rating: 0
soybean; [1]
  Soybean plant response rating: 0
soybean; Preemergence, Rate 125 g/ha
  Soybean plant response rating (0 to 10 scale): 0
soybean; [2]
  Soybean plant response rating: 0
soybean; [3]
  Soybean plant response rating: 0
soybean; [4]
  Soybean plant response rating: 3
soybean; [5]
  Soybean plant response rating: 4
soybean; [6]
  Plant response rating, Soybean: 5
Wild oat; [1]
  Wild oats plant response rating: 0
Wild oat; Preemergence, Rate 125 g/ha
  Wild oats plant response rating (0 to 10 scale): 0
Wild oat; [2]
  Wild oats plant response rating: 0
Wild oat; [3]
  Wild oats plant response rating: 0
Wild oat; [4]
  Wild oats plant response rating: 0
Wild oat; [5]
  Wild oats plant response rating: 0
Wild oat; [6]
  Plant response rating, Wild oats: 0
crabgrass; [1]
  Crabgrass plant response rating: 3
crabgrass; Preemergence, Rate 125 g/ha
  Crabgrass plant response rating (0 to 10 scale): 4
crabgrass; [2]
  Crabgrass plant response rating: 6
crabgrass; [3]
  Crabgrass plant response rating: 8
crabgrass; [4]
  Crabgrass plant response rating: 0
crabgrass; [5]
  Crabgrass plant response rating: 0
crabgrass; [6]
  Plant response rating, Crabgrass: 0
corn; [1]
  Corn plant response rating: 0
corn; Preemergence, Rate 125 g/ha
  Corn plant response rating (0 to 10 scale): 0
corn; [2]
  Corn plant response rating: 0
corn; [3]
  Corn plant response rating: 0
corn; [4]
  Corn plant response rating: 0
corn; [5]
  Corn plant response rating: 0
corn; [6]
  Plant response rating, Corn: 0
corn; [7]
  Corn plant response rating: 0
blackgrass; [1]
  Blackgrass plant response rating: 0
blackgrass; Preemergence, Rate 125 g/ha
  Blackgrass plant response rating (0 to 10 scale): 0
blackgrass; [2]
  Blackgrass plant response rating: 0
blackgrass; [3]
  Blackgrass plant response rating: 0
blackgrass; [4]
  Blackgrass plant response rating: 0
blackgrass; [5]
  Blackgrass plant response rating: 0
blackgrass; [6]
  Plant response rating, Blackgrass: 0
blackgrass; [7]
  Blackgrass plant response rating: 4
wheat; [1]
  Wheat plant response rating: 0
wheat; Preemergence, Rate 125 g/ha
  Wheat plant response rating (0 to 10 scale): 0
wheat; [2]
  Wheat plant response rating: 0
wheat; [3]
  Wheat plant response rating: 0
wheat; [4]
  Wheat plant response rating: 0
wheat; [5]
  Wheat plant response rating: 0
wheat; [6]
  Plant response rating, Wheat: 0
bamyardgrass; [8]
  Barnyardgrass plant response rating: 0
bamyardgrass; [9]
  Barnyardgrass plant response rating: 0
bamyardgrass; [10]
  Barnyardgrass plant response rating: 0
bamyardgrass; [11]
  Barnyardgrass plant response rating: 4
Smallflower flatsedge; [8]
  S. Flatsedge plant response rating: 0
Smallflower flatsedge; [9]
  S. Flatsedge plant response rating: 0
Smallflower flatsedge; [10]
  S. Flatsedge plant response rating: 0
Smallflower flatsedge; [11]
  S. Flatsedge plant response rating: 0
velvetleaf; [1]
  Velvetleaf plant response rating: 0
velvetleaf; Preemergence, Rate 125 g/ha
  Velvetleaf plant response rating (0 to 10 scale): 0
velvetleaf; [2]
  Velvetleaf plant response rating: 0
velvetleaf; [3]
  Velvetleaf plant response rating: 0
velvetleaf; [4]
  Velvetleaf plant response rating: 0
velvetleaf; [5]
  Velvetleaf plant response rating: 0
velvetleaf; [6]
  Plant response rating, Velvetleaf: 0
Sugar beet; [1]
  Sugarbeets plant response rating: 0
Sugar beet; Preemergence, Rate 125 g/ha
  Sugarbeets plant response rating (0 to 10 scale): 1
Sugar beet; [2]
  Sugarbeets plant response rating: 6
Sugar beet; [3]
  Sugarbeets plant response rating: 6
Sugar beet; [4]
  Sugarbeets plant response rating: 0
Sugar beet; [5]
  Sugarbeets plant response rating: 0
Sugar beet; [6]
  Plant response rating, Sugarbeets: 0
Duck salad; [8]
  Ducksalad plant response rating: 0
Duck salad; [9]
  Ducksalad plant response rating: 0
Duck salad; [10]
  Ducksalad plant response rating: 0
Duck salad; [11]
  Ducksalad plant response rating: 0
cocklebur; Preemergence, Rate 125 g/ha
  Cocklebur plant response rating (0 to 10 scale): 0
cocklebur; [2]
  Cocklebur plant response rating: 0
cocklebur; [3]
  Cocklebur plant response rating: 0
cocklebur; [4]
  Cocklebur plant response rating: 0
cocklebur; [5]
  Cocklebur plant response rating: 0
cocklebur; [6]
  Plant response rating, Cocklebur: 0
cocklebur; [7]
  Cocklebur plant response rating: 0
Purple nutsedge; [1]
  Nutsedge plant response rating: 0
Purple nutsedge; Preemergence, Rate 125 g/ha
  Nutsedge plant response rating (0 to 10 scale): 0
Purple nutsedge; [2]
  Nutsedge plant response rating: 0
Purple nutsedge; [3]
  Nutsedge plant response rating: 0
Purple nutsedge; [4]
  Nutsedge plant response rating: 0
Purple nutsedge; [5]
  Nutsedge plant response rating: 0
Purple nutsedge; [6]
  Plant response rating, Nutsedge: 0
